Data: patent US20230139445A1, “BACTERIAL CELLS WITH IMPROVED TOLERANCE TO DIACIDS” (priority 2016, published 2023)
Where two headings read alike, the source gives them in different places.

Tests used:
[1] = tested on: Escherichia coli K-12 MG1655 and evolved isolates; assay type: cell-based; details: 45 g/L pimelic acid
Method: Five colonies from wild-type K-12 MG1655 and 10 individual colonies deriving from each population were inoculated into 300 μL M9+1% glucose in 96 well deepwell plates and incubated in a 300 rpm plate shaker at 37° C. The next day, cells were diluted 10× in M9+1% glucose and 30 μL was transferred into clear-bottomed 96 well half-deepwell plates (with rectangular wells) containing M9+1% glucose and M9+1% glucose+52.78 g/L glutaric acid or 55.56 g/L adipic acid, such that the final concentration of glutaric acid or adipic acid was 47.5 g/L or 50 g/L, respectively. In addition, cryogenic glycerol stocks of the overnight culture were saved in a 96 well plate format. Half deepwell plates were incubated at 37° C. with 225 rpm shaking in a Growth Profiler (Enzyscreen), with optical scans of the plates taken at 15 minute intervals. Green pixel values integrated over a 1 mm diameter circular area in each well were converted to OD600 values using a previously determined calibration between OD600 and green pixel values.
Additionally, each evolved isolate was tested for cross-tolerance toward other dicarboxylic acids of interest. […] All diacids tested were either the neutral sodium salts, or the free diacid was neutralized with sodium hydroxide to pH 7.0 for testing.

[2] = tested on: Escherichia coli K-12 MG1655; assay: Screening for tolerance in wild-type cells: growth in varying concentrations of neutralized diacid, Biolector; assay type: cell-based; details: for tlag (lag time), mean / μ (growth rate), mean: neutralized with sodium hydroxide
Method: Escherichia coli K-12 MG1655 was grown overnight in M9 minimal medium+1% glucose and subcultured the following morning to an initial OD600 of 0.05 in M9+1% glucose. Cells were grown to mid-exponential phase (OD600 0.7-1.0) and were back-diluted with fresh medium to an OD600 of 0.7. The diluted cells were used to inoculate M9+1% glucose containing varying concentrations of glutaric acid or adipic acid which were neutralized to pH 7.0 with sodium hydroxide, and growth was measured in FlowerPlates in a Biolector microbioreactor system (m2p-labs) at 37° C. with 1000 rpm shaking. The culture volume in each well was 1.4 mL.

SMILES: O=C(O)CCCCCC(=O)O [pimelic acid]
- growth rate μ (mean) ([1]; strain ADIP1-1): 0.432 h⁻¹
- lag time tlag (mean) ([1]; strain ADIP1-1): 9.6 h
- growth rate μ (mean) ([1]; strain ADIP1-9): 0.421 h⁻¹
- lag time tlag (mean) ([1]; strain ADIP1-9): 8.8 h
- growth rate μ (mean) ([1]; strain ADIP2-5): 0.474 h⁻¹
- lag time tlag (mean) ([1]; strain ADIP2-5): 11.0 h
- growth rate μ (mean) ([1]; strain ADIP2-6): 0.480 h⁻¹
- lag time tlag (mean) ([1]; strain ADIP2-6): 10.6 h
- growth rate μ (mean) ([1]; strain ADIP2-10): 0.479 h⁻¹
- lag time tlag (mean) ([1]; strain ADIP2-10): 10.8 h
- growth rate μ (mean) ([1]; strain ADIP3-2): 0.438 h⁻¹
- lag time tlag (mean) ([1]; strain ADIP3-2): 8.4 h
- growth rate μ (mean) ([1]; strain ADIP3-4): 0.435 h⁻¹
- lag time tlag (mean) ([1]; strain ADIP3-4): 8.5 h
- growth rate μ (mean) ([1]; strain ADIP3-8): 0.426 h⁻¹
- lag time tlag (mean) ([1]; strain ADIP3-8): 9.1 h
- growth rate μ (mean) ([1]; strain ADIP4-1): 0.348 h⁻¹
- lag time tlag (mean) ([1]; strain ADIP4-1): 9.9 h
- growth rate μ (mean) ([1]; strain ADIP4-8): 0.349 h⁻¹
- lag time tlag (mean) ([1]; strain ADIP4-8): 10.3 h
- growth rate μ (mean) ([1]; strain ADIP5-2): 0.385 h⁻¹
- lag time tlag (mean) ([1]; strain ADIP5-2): 8.7 h
- growth rate μ (mean) ([1]; strain ADIP5-6): 0.483 h⁻¹
- lag time tlag (mean) ([1]; strain ADIP5-6): 8.5 h
- growth rate μ (mean) ([1]; strain ADIP6-3): 0.346 h⁻¹
- lag time tlag (mean) ([1]; strain ADIP6-3): 10.4 h
- growth rate μ (mean) ([1]; strain ADIP6-9): 0.278 h⁻¹
- lag time tlag (mean) ([1]; strain ADIP6-9): 11.1 h
- growth rate μ (mean) ([1]; strain ADIP6-10): 0.360 h⁻¹
- lag time tlag (mean) ([1]; strain ADIP6-10): 9.7 h
- growth rate μ (mean) ([1]; strain ADIP7-2): 0.393 h⁻¹
- lag time tlag (mean) ([1]; strain ADIP7-2): 9.0 h
- growth rate μ (mean) ([1]; strain ADIP7-5): 0.376 h⁻¹
- lag time tlag (mean) ([1]; strain ADIP7-5): 9.4 h
- growth rate μ (mean) ([1]; strain ADIP8-3): 0.235 h⁻¹
- lag time tlag (mean) ([1]; strain ADIP8-3): 12.8 h
- growth rate μ (mean) ([1]; strain ADIP8-7): 0.268 h⁻¹
- lag time tlag (mean) ([1]; strain ADIP8-7): 12.8 h
- growth rate μ (mean) ([1]; strain ADIP8-10): 0.249 h⁻¹
- lag time tlag (mean) ([1]; strain ADIP8-10): 12.8 h
- growth rate μ (mean) ([1]; strain GLUT1-3): 0.369 h⁻¹
- lag time tlag (mean) ([1]; strain GLUT1-3): 10.4 h
- growth rate μ (mean) ([1]; strain GLUT1-9): 0.337 h⁻¹
- lag time tlag (mean) ([1]; strain GLUT1-9): 11.9 h
- growth rate μ (mean) ([1]; strain GLUT1-10): 0.399 h⁻¹
- lag time tlag (mean) ([1]; strain GLUT1-10): 13.1 h
- growth rate μ (mean) ([1]; strain GLUT2-1): 0.362 h⁻¹
- lag time tlag (mean) ([1]; strain GLUT2-1): 11.6 h
- growth rate μ (mean) ([1]; strain GLUT2-9): 0.349 h⁻¹
- lag time tlag (mean) ([1]; strain GLUT2-9): 10.3 h
- growth rate μ (mean) ([1]; strain GLUT2-10): 0.383 h⁻¹
- lag time tlag (mean) ([1]; strain GLUT2-10): 10.2 h
- growth rate μ (mean) ([1]; strain GLUT3-5): 0.280 h⁻¹
- lag time tlag (mean) ([1]; strain GLUT3-5): 17.6 h
- growth rate μ (mean) ([1]; strain GLUT3-7): 0.360 h⁻¹
- lag time tlag (mean) ([1]; strain GLUT3-7): 11.5 h
- growth rate μ (mean) ([1]; strain GLUT3-9): 0.351 h⁻¹
- lag time tlag (mean) ([1]; strain GLUT3-9): 15.7 h
- growth rate μ (mean) ([1]; strain GLUT4-1): 0.378 h⁻¹
- lag time tlag (mean) ([1]; strain GLUT4-1): 12.8 h
- growth rate μ (mean) ([1]; strain GLUT4-4): 0.388 h⁻¹
- lag time tlag (mean) ([1]; strain GLUT4-4): 13.2 h
- growth rate μ (mean) ([1]; strain GLUT4-10): 0.371 h⁻¹
- lag time tlag (mean) ([1]; strain GLUT4-10): 11.5 h
- growth rate μ (mean) ([1]; strain GLUT5-4): 0.433 h⁻¹
- lag time tlag (mean) ([1]; strain GLUT5-4): 12.1 h
- growth rate μ (mean) ([1]; strain GLUT5-5): 0.420 h⁻¹
- lag time tlag (mean) ([1]; strain GLUT5-5): 12.8 h
- growth rate μ (mean) ([1]; strain GLUT5-9): 0.428 h⁻¹
- lag time tlag (mean) ([1]; strain GLUT5-9): 13.0 h
- growth rate μ (mean) ([1]; strain GLUT6-4): 0.356 h⁻¹
- lag time tlag (mean) ([1]; strain GLUT6-4): 11.7 h
- growth rate μ (mean) ([1]; strain GLUT6-5): 0.348 h⁻¹
- lag time tlag (mean) ([1]; strain GLUT6-5): 11.3 h
- growth rate μ (mean) ([1]; strain GLUT6-10): 0.353 h⁻¹
- lag time tlag (mean) ([1]; strain GLUT6-10): 12.1 h
- growth rate μ (mean) ([1]; strain GLUT7-2): 0.349 h⁻¹
- lag time tlag (mean) ([1]; strain GLUT7-2): 11.6 h
- growth rate μ (mean) ([1]; strain GLUT7-6): 0.357 h⁻¹
- lag time tlag (mean) ([1]; strain GLUT7-6): 14.8 h
- growth rate μ (mean) ([1]; strain GLUT7-7): 0.335 h⁻¹
- lag time tlag (mean) ([1]; strain GLUT7-7): 14.1 h
- growth rate μ (mean) ([1]; strain GLUT8-5): 0.349 h⁻¹
- lag time tlag (mean) ([1]; strain GLUT8-5): 11.8 h
- growth rate μ (mean) ([1]; strain GLUT8-6): 0.184 h⁻¹
- lag time tlag (mean) ([1]; strain GLUT8-6): 20.9 h
- growth rate μ (mean) ([1]; strain GLUT8-9): 0.259 h⁻¹
- lag time tlag (mean) ([1]; strain GLUT8-9): 11.2 h
- growth rate μ (mean) ([1]; strain MG1655 (Table 28)): 0.275 h⁻¹
- lag time tlag (mean) ([1]; strain MG1655 (Table 28)): 13.4 h
- growth rate μ (mean) ([1]; strain MG1655 (Table 29)): 0.271 h⁻¹
- lag time tlag (mean) ([1]; strain MG1655 (Table 29)): 12.4 h
- tlag (lag time), mean ([2]; 10 g/L): 1.9 h
- μ (growth rate), mean ([2]; 10 g/L, M9+1% glucose, 37° C): 0.694 h⁻¹
- tlag (lag time), mean ([2]; 20 g/L): 2.4 h
- μ (growth rate), mean ([2]; 20 g/L): 0.656 h⁻¹
- tlag (lag time), mean ([2]; 25 g/L): 2.5 h
- μ (growth rate), mean ([2]; 25 g/L): 0.572 h⁻¹
- tlag (lag time), mean ([2]; 30 g/L): 3.3 h
- μ (growth rate), mean ([2]; 30 g/L): 0.560 h⁻¹
- tlag (lag time), mean ([2]; 35 g/L): 4.1 h
- μ (growth rate), mean ([2]; 35 g/L): 0.534 h⁻¹
- tlag (lag time), mean ([2]; 40 g/L): 4.3 h
- μ (growth rate), mean ([2]; 40 g/L): 0.439 h⁻¹
- tlag (lag time), mean ([2]; 45 g/L): 4.6 h
- μ (growth rate), mean ([2]; 45 g/L): 0.280 h⁻¹
- growth of K-12 MG1655 ([2]; at 45 g/L): Robust growth was still observed
